Results on 15 compounds are retold here after US11292788B2, “IL-17 and IFN-gamma inhibition for the treatment of autoimmune diseases and chronic inflammation” (Immunic AG, priority 2017, dated 2022).

One series deals with IL-17F. Description: Cytokine assay: IL-17F production by human PBMC stimulated with PHA. It counts as cell-based. Conditions: Homo sapiens, PBMC, IC50 class, read-out: IL-17F Inhib. The essentials:
(§1)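 Healthy-donor PBMC, isolated on Histopaque-1077, were seeded at 1×10^5 cells/well in RPMI1640 with 10% dialyzed heat-inactivated FCS, activated with 2 μg/ml PHA and incubated with compound for 48 hours. Supernatant cytokine was measured by Luminex BioPlex or ELISA. IC50 came from semilogarithmic titration; screening used 10, 1, 0.1 and 0.01 μM.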

The next series deals with INF-γ. As to the kind of experiment: Cytokine assay: INF-γ production by human PBMC stimulated with PHA. It counts as cell-based. The following applies: Homo sapiens, PBMC, IC50 class, read-out: IFN-gamma Inhib. The essentials:
as §1

Another series deals with IL-17A. As to the kind of experiment: Cytokine assay: IL-17A production by human PBMC stimulated with PHA. Type of series: cell-based. The following applies: Homo sapiens, PBMC, IC50 class, read-out: IL-17A Inhib. The essentials:
as §1

Series [1] is described as follows: Microsomal stability: incubation with human liver microsomes, residual parent compound by HPLC-MS/MS. It counts as in vitro ADME. Conditions: pH 7.4; human liver microsomes, 1 μM compound, 0.5 mg/ml HLM, 37° C., up to 60 min; read-out: t1/2 hLM. Here is the method: Metabolic stability of compounds of the present invention was determined by incubation with human liver microsomes and subsequent determination of residual amount of the respective compound (“parent compound”) by HPLC-MS/MS.
In order to achieve this, in a final reaction volume of 1000 μl, each compound was incubated at a final concentration of 1 μM with 0.5 mg/ml human liver microsomes (HLM Pool 50 Donors, 20 mg/ml, BD Gentest, #452156, LotNr 88114) in 0.1 M Potassium phosphate buffer at pH 7.4, with a cofactor in form of a NADPH regenerating system (Promega, #V9510) according to the manufacturers' specifications. The final DMSO concentration in each sample was 0.4%. The incubation was performed at 37° C. under shaking conditions (Thermomixer, 1400 rpm) for different time intervals up to 60 min. To stop the reaction, for each time point 200 μl of the reaction were taken out and 200 μl ice-cold acetonitrile was added. Then, the samples were centrifuged (4° C., 14000*g for 15 min). The supernatant was analyzed for residual parent compound concentration and scanned for metabolites using HPLC-MS/MS. By using optimized MS methods for each compound, the peak area under curve for the compound specific signal is determined. The change of the peak areas over the assay time of 60 min resemble the remaining parent compound in % of T0. By these points, a balancing line was set. The half-time, as well as the clearance, can then be calculated on the basis of the slope.
Background: Microsomes from liver hold many membrane-bound enzymes, among them those of drug oxidation.

As to `C[C@@H](O)Cn1ncc(-c2onc(-c3c(F)cccc3Cl)c2-c2ncccn2)c1C(F)(F)F` [Example 97, (R)-1-(4-(3-(2-chloro-6-fluorophenyl)-4-(pyrimidin-2-yl)isoxazol-5-yl)-5-(trifluoromethyl)-1H-pyrazol-1-yl)propan-2-ol], the IC50 with IL-17F, in the series with INF-γ and with IL-17A was less than 50 nM in each case. Further, the half-life at 1 μM in series [1] is 0.667 to 1.67 h.

Take `C[C@]1(O)C[C@@H](n2ncc(-c3onc(-c4c(F)cccc4Cl)c3-c3ncccn3)c2C(F)(F)F)C1` [Example 98, 3-(4-(3-(2-chloro-6-fluorophenyl)-4-(pyrimidin-2-yl)isoxazol-5-yl)-5-(trifluoromethyl)-1H-pyrazol-1-yl)-1-methylcyclobutanol]: the IC50 with IL-17F, in the series on INF-γ and in the series with IL-17A was less than 50 nM in each case. For the same compound, the half-life at 1 μM in series [1] was greater than 1.67 h.

With `C[C@]1(O)C[C@@H](n2ncc(-c3onc(-c4c(F)cccc4Cl)c3-c3cnccn3)c2C(F)(F)F)C1` [Example 100, 3-{4-[3-(2-chloro-6-fluorophenyl)-4-(pyrazin-2-yl)-1,2-oxazol-5-yl]-5-(trifluoromethyl)-1H-pyrazol-1-yl}-1-methylcyclobutan-1-ol], the IC50 is less than 50 nM in the series with IL-17F, less than 50 nM in the series on INF-γ and 50 to 500 nM with IL-17A. Besides, the half-life at 1 μM in series [1] was greater than 1.67 h.

In the case of `COc1cccc(-c2noc(-c3cnn([C@H]4C[C@@](C)(O)C4)c3C(F)(F)F)c2-c2ncccn2)c1Cl` [Example 103, 3-{4-[3-(2-chloro-3-methoxyphenyl)-4-(pyrimidin-2-yl)-1,2-oxazol-5-yl]-5-(trifluoromethyl)-1H-pyrazol-1-yl}-1-methylcyclobutan-1-ol], the IC50 in the series with IL-17F, with INF-γ and with IL-17A was less than 50 nM in each case. The half-life at 1 μM in series [1] was greater than 1.67 h.

Consider `CC(C)(O)Cn1ncc(-c2onc(-c3c(F)cccc3Cl)c2-c2ncccn2)c1C(F)(F)F` [Example 118, 1-{4-[3-(2-chloro-6-fluorophenyl)-4-(pyrimidin-2-yl)-1,2-oxazol-5-yl]-5-(trifluoromethyl)-1H-pyrazol-1-yl}-2-methylpropan-2-ol], for which the IC50 with IL-17F, in the series with INF-γ and in the series on IL-17A was less than 50 nM each time. Also, the half-life at 1 μM in series [1] is greater than 1.67 h.

Regarding `COc1cccc(-c2noc(-c3cnn(CCC(C)(C)O)c3C(F)(F)F)c2-c2ncccn2)c1Cl` [Example 121, 4-{4-[3-(2-chloro-3-methoxyphenyl)-4-(pyrimidin-2-yl)-1,2-oxazol-5-yl]-5-(trifluoromethyl)-1H-pyrazol-1-yl}-2-methylbutan-2-ol], the IC50 with IL-17F is 50 to 500 nM; with INF-γ it was less than 50 nM; with IL-17A, less than 50 nM. Further, the half-life at 1 μM in series [1] is greater than 1.67 h.

For `COc1cccc(-c2noc(-c3cnn(CCC(C)(C)O)c3C)c2-c2ncccn2)c1Cl` [Example 124, 4-{4-[3-(2-chloro-3-methoxyphenyl)-4-(pyrimidin-2-yl)-1,2-oxazol-5-yl]-5-methyl-1H-pyrazol-1-yl}-2-methylbutan-2-ol], the IC50 in the series with IL-17F, in the series with INF-γ and in the series on IL-17A was less than 50 nM throughout. Further, the half-life at 1 μM in series [1] is greater than 1.67 h.

Consider `COc1ccc(Cl)c(-c2noc(-c3cnn(CCC(C)(C)O)c3C)c2-c2ncccn2)c1Cl` [Example 125, 4-{4-[3-(2,6-dichloro-3-methoxyphenyl)-4-(pyrimidin-2-yl)-1,2-oxazol-5-yl]-5-methyl-1H-pyrazol-1-yl}-2-methylbutan-2-ol], for which the results for the IC50 in the series with IL-17F, in the series on INF-γ and with IL-17A were less than 50 nM, less than 50 nM and 50 to 500 nM, respectively. Moreover, the half-life at 1 μM in series [1] is greater than 1.67 h.

As for `Cc1c(-c2onc(-c3c(F)cccc3Cl)c2-c2ncccn2)cnn1CCC(C)(C)O` [Example 127, 4-{4-[3-(2-chloro-6-fluorophenyl)-4-(pyrimidin-2-yl)-1,2-oxazol-5-yl]-5-methyl-1H-pyrazol-1-yl}-2-methylbutan-2-ol], the IC50 with IL-17F was 50 to 500 nM; with INF-γ, less than 50 nM; in the series on IL-17A, 50 to 500 nM. The half-life at 1 μM in series [1] was greater than 1.67 h.

With `CC(C)(O)CCn1ncc(-c2onc(-c3cccc(OCCN4CCOCC4)c3Cl)c2-c2ncccn2)c1C(F)(F)F` [Example 133, 4-[4-(3-{2-chloro-3-[2-(morpholin-4-yl)ethoxy]phenyl}-4-(pyrimidin-2-yl)-1,2-oxazol-5-yl)-5-(trifluoromethyl)-1H-pyrazol-1-yl]-2-methylbutan-2-ol], the IC50 in the series on IL-17F, in the series with INF-γ and in the series on IL-17A was less than 50 nM each time. For the same compound, the half-life at 1 μM in series [1] is 0.0333 to 0.167 h.

For the compound `CN(C)CCOc1cccc(-c2noc(-c3cnn(CCC(C)(C)O)c3C(F)(F)F)c2-c2ncccn2)c1Cl` [Example 134, 4-[4-(3-{2-chloro-3-[2-(dimethylamino)ethoxy]phenyl}-4-(pyrimidin-2-yl)-1,2-oxazol-5-yl)-5-(trifluoromethyl)-1H-pyrazol-1-yl]-2-methylbutan-2-ol], the IC50 was 50 to 500 nM in the series on IL-17F, 50 to 500 nM with INF-γ and less than 50 nM in the series with IL-17A. For the same compound, in series [1], the half-life at 1 μM is greater than 1.67 h.

On to `CC(C)(O)CCn1ncc(-c2onc(-c3cccc(OCCN4CCCC4)c3Cl)c2-c2ncccn2)c1C(F)(F)F` [Example 135, 4-[4-(3-{2-chloro-3-[2-(pyrrolidin-1-yl)ethoxy]phenyl}-4-(pyrimidin-2-yl)-1,2-oxazol-5-yl)-5-(trifluoromethyl)-1H-pyrazol-1-yl]-2-methylbutan-2-ol], for which the IC50 in the series with IL-17F was 50 to 500 nM; in the series with INF-γ it was less than 50 nM; in the series with IL-17A it was 50 to 500 nM. In addition, in series [1], the half-life at 1 μM lay in the range of 0.667 to 1.67 h.

In the case of `CCN(CC)CCOc1cccc(-c2noc(-c3cnn(CCC(C)(C)O)c3C(F)(F)F)c2-c2ncccn2)c1Cl` [Example 137, 4-[4-(3-{2-chloro-3-[2-(diethylamino)ethoxy]phenyl}-4-(pyrimidin-2-yl)-1,2-oxazol-5-yl)-5-(trifluoromethyl)-1H-pyrazol-1-yl]-2-methylbutan-2-ol], the IC50 in the series with IL-17F, in the series with INF-γ and in the series with IL-17A was 50 to 500 nM throughout. The half-life at 1 μM in series [1] is 0.167 to 0.666 h.

On to `CC(C)(O)CCn1ncc(-c2onc(-c3cccc(OCCN4CCS(=O)(=O)CC4)c3Cl)c2-c2ncccn2)c1C(F)(F)F` [Example 138, 4-[2-(2-chloro-3-{5-[1-(3-hydroxy-3-methylbutyl)-5-(trifluoromethyl)-1H-pyrazol-4-yl]-4-(pyrimidin-2-yl)-1,2-oxazol-3-yl}phenoxy)ethyl]-thiomorpholine-1,1-dione], for which the IC50 was less than 50 nM with IL-17F, 50 to 500 nM in the series with INF-γ and less than 50 nM with IL-17A. For the same compound, the half-life at 1 μM in series [1] fell in the range of 0.0333 to 0.167 h.

As for `CC(C)(O)CCn1ncc(-c2onc(-c3cccc(OCCN4CC5(COC5)C4)c3Cl)c2-c2ncccn2)c1C(F)(F)F` [Example 139, 4-(4-{3-[2-chloro-3-(2-{2-oxa-6-azaspiro[3.3]heptan-6-yl}ethoxy)phenyl]-4-(pyrimidin-2-yl)-1,2-oxazol-5-yl}-5-(trifluoromethyl)-1H-pyrazol-1-yl)-2-methylbutan-2-ol], the IC50 in the series with IL-17F is less than 50 nM; with INF-γ, 50 to 500 nM; with IL-17A it was less than 50 nM. In series [1], the half-life at 1 μM was in the range of 0.167 to 0.666 h.
